# Experimental data taken from patent publication US10800791B2, “Triazole ACC inhibitors and uses thereof” (Gilead Apollo, LLC, priority 2015, dated 2020).
# Read-outs that look alike come from different tables or passages of the source.
# Legend:
# [1] = test system: C. parapsilosis; assay: Antifungal Activity Assay (broth microtiter MIC), C. parapsilosis; type: cell-based, Candida parapsilosis; details: Lodderomyces parapsilosis, ATCC22019, 48 h
# Method in brief: (§1)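 Broth microdilution per CLSI M27-A3 in RPMI 1640+MOPS, inoculum 2.5×10^3 CFU/mL final from overnight Sabouraud dextrose agar cultures at 35° C. Compounds diluted from DMSO stock to 128 μg/mL in water. MIC read visually versus growth control at 48 h.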
# [2] = test system: C. albicans; assay: Antifungal Activity Assay (broth microtiter MIC), C. albicans; type: cell-based, Candida albicans; details: Candida albicans, ATCC90028, 48 h
# Method in brief: as §1
# [3] = test system: Septoria tritici (St); assay: Growth inhibition assay of fungal pathogens, St; type: cell-based; details: Zymoseptoria tritici, 48 h, growth inhibition at 48 hours vs 2% DMSO control
# Method in brief: (§2)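 Pathogen growth in 17% V8 broth is measured by OD600 at 24 and 48 hours, after blank subtraction, in the presence of compound at 50, 10 and 2 ppm or 2, 0.4 and 0.08 ppm. Inhibition in percent comes from 48-hour readings against the DMSO control.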
# [4] = molecular target: human (hACC2) (Homo sapiens, UniProt O00763); assay: In vitro ACC inhibition assay (ADP-Glo), hACC2; type: biochemical; details: Table 2b, additional results, 5 nM ACC2, 20 μM ATP, 20 μM acetyl-CoA
# Method: The detailed procedure is as follows. […] 10 μL ADP glo reagent was added. […] 20 μL kinase detection reagent was added.
# [5] = test system: Collectotrichum graminicola (Cg); assay: Growth inhibition assay of fungal pathogens, Cg; type: cell-based; details: 48 h, growth inhibition at 48 hours vs 2% DMSO control
# Method in brief: as §2
# [6] = test system: Fusarium moniliforme (Fm); assay: Growth inhibition assay of fungal pathogens, Fm; type: cell-based; details: Fusarium verticillioides, 48 h, read-out: Concentration at 90% Inhibition Fm
# Method in brief: as §2
# [7] = test system: Phytophthora capsici (Pc); assay: Growth inhibition assay of fungal pathogens, Pc; type: cell-based; details: 48 h
# Method in brief: as §2
# [8] = test system: Botrtyis cinerea (Bc); assay: Growth inhibition assay of fungal pathogens, Bc; type: cell-based; details: 48 h, growth inhibition at 48 hours vs 2% DMSO control
# Method in brief: as §2
# [9] = molecular target: fungal (fACC2) (UniProt Q00955); details: read-out: fACC2 (in vitro ACC2 Inhibition Assay, IC50); Table 2b, additional results; ADP-Glo, 5 nM ACC2, 20 μM ATP, 20 μM acetyl-CoA
# [10] = test system: Fusarium virguliforme (Fv); assay: Growth inhibition assay of fungal pathogens, Fv; type: cell-based; details: 48 h
# Method in brief: as §2
# [11] = test system: C. krusei; assay: Antifungal Activity Assay (broth microtiter MIC), C. krusei; type: cell-based, Candida krusei; details: Pichia kudriavzevii, ATCC6258, 48 h
# Method in brief: as §1
# [12] = test system: Rhizoctonia solani (Rs); assay: Growth inhibition assay of fungal pathogens, Rs; type: cell-based; details: 48 h
# [13] = test system: Diplodia maydis (Dm); assay: Growth inhibition assay of fungal pathogens, Dm; type: cell-based; details: Stenocarpella maydis, 48 h, growth inhibition at 48 hours vs 2% DMSO control
# Method in brief: as §2
# [14] = read-out: MIC, C. parapsilosis ATCC 22019, Table 3b (additional results), 3 replicates, MIC recorded at 48 h
# [15] = read-out: MIC, C. albicans ATCC 90028, Table 3b (additional results), 3 replicates, MIC recorded at 48 h
# [16] = read-out: Concentration at 90% Inhibition St, Septoria tritici
# [17] = read-out: Concentration at 90% Inhibition Cg, Collectotrichum graminicola
# [18] = read-out: Concentration at 90% Inhibition Pc, Phytophthora capsici, growth inhibition at 48 hours vs 2% DMSO control
# [19] = read-out: Concentration at 90% Inhibition Bc, Botrtyis cinerea
# [20] = read-out: Concentration at 90% Inhibition Fv, Fusarium virguliforme, growth inhibition at 48 hours vs 2% DMSO control
# [21] = read-out: MIC, C. krusei ATCC 6258, Table 3b (additional results), 3 replicates, MIC recorded at 48 h
# [22] = read-out: Concentration at 90% Inhibition Rs, Rhizoctonia solani, mycelial plugs, growth inhibition at 48 hours vs 2% DMSO control
# [23] = read-out: Concentration at 90% Inhibition Dm, Diplodia maydis
# [24] = Table 3b (additional results), ATCC 22019, 3 replicates, MIC recorded at 48 h, read-out: MIC, C. parapsilosis ATCC 22019
# [25] = Table 3b (additional results), ATCC 90028, 3 replicates, MIC recorded at 48 h, read-out: MIC, C. albicans ATCC 90028
# [26] = Septoria tritici, read-out: Concentration at 90% Inhibition St
# [27] = Collectotrichum graminicola, read-out: Concentration at 90% Inhibition Cg
# [28] = Fusarium moniliforme, growth inhibition at 48 hours vs 2% DMSO control
# [29] = growth inhibition at 48 hours vs 2% DMSO control, read-out: Concentration at 90% Inhibition Pc
# [30] = Botrtyis cinerea, read-out: Concentration at 90% Inhibition Bc
# [31] = growth inhibition at 48 hours vs 2% DMSO control, read-out: Concentration at 90% Inhibition Fv
# [32] = Table 3b (additional results), ATCC 6258, 3 replicates, MIC recorded at 48 h, read-out: MIC, C. krusei ATCC 6258
# [33] = mycelial plugs, growth inhibition at 48 hours vs 2% DMSO control, read-out: Concentration at 90% Inhibition Rs
# [34] = Diplodia maydis, read-out: Concentration at 90% Inhibition Dm
# human (hACC2), sequence (O00763 whole entry): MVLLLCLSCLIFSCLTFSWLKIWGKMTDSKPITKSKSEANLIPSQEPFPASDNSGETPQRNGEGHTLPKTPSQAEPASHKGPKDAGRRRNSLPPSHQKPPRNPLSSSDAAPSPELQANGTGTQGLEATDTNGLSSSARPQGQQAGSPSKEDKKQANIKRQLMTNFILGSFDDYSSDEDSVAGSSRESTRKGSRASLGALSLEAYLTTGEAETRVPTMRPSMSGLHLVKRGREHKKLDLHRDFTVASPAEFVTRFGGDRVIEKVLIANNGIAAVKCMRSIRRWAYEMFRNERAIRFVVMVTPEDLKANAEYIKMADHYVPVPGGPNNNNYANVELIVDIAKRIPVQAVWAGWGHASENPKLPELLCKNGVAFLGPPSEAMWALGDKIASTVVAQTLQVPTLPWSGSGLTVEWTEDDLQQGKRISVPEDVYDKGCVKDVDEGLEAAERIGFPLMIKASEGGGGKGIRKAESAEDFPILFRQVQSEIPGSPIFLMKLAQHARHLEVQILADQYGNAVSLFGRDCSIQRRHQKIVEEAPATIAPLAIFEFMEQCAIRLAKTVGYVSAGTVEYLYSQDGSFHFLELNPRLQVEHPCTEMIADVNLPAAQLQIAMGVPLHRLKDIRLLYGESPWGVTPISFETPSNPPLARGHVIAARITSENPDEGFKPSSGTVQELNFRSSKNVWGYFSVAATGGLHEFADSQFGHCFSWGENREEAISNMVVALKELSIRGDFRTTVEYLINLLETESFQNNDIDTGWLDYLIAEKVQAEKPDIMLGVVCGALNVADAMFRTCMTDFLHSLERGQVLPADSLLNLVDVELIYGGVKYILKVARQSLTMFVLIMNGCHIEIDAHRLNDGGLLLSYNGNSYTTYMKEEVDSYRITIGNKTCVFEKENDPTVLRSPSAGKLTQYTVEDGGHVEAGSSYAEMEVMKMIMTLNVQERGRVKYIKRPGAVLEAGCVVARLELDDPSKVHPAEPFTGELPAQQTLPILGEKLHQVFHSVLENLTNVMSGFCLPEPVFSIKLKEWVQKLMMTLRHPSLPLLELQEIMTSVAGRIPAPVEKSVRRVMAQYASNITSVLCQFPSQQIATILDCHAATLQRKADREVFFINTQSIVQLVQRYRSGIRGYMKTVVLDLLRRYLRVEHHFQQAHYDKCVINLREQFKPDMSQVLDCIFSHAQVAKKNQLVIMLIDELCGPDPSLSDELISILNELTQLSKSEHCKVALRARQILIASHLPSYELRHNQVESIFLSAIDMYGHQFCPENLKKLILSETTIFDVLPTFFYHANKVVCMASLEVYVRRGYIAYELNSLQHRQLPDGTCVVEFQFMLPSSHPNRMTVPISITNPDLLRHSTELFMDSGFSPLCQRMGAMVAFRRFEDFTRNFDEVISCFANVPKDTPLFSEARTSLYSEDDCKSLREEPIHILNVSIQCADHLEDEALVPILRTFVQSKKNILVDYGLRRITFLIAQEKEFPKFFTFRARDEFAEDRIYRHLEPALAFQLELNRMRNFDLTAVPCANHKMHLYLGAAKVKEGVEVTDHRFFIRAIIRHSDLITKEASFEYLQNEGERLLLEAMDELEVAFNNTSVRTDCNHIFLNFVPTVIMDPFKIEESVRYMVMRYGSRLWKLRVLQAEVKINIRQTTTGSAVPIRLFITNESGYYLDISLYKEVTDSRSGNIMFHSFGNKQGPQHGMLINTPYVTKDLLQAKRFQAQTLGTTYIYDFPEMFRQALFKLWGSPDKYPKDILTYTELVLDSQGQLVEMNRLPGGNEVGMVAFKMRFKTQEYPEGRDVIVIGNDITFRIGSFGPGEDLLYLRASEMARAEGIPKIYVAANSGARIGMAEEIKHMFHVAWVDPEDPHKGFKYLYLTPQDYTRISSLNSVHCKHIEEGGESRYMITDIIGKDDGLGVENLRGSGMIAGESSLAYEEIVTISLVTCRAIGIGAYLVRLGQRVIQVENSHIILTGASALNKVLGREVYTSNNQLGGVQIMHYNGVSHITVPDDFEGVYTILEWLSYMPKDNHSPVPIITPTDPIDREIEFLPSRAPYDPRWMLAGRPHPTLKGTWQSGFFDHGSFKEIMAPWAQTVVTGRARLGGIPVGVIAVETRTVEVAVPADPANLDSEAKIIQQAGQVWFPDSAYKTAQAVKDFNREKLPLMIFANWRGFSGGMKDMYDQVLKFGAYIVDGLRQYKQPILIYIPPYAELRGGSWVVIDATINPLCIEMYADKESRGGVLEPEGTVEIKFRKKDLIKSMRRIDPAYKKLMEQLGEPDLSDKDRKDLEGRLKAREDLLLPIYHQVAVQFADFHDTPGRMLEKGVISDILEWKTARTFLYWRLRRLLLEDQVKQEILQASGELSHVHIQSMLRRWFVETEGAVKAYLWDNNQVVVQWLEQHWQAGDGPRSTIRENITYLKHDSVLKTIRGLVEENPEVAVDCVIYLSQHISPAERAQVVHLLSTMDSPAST
# fungal (fACC2), sequence (Q00955 whole entry): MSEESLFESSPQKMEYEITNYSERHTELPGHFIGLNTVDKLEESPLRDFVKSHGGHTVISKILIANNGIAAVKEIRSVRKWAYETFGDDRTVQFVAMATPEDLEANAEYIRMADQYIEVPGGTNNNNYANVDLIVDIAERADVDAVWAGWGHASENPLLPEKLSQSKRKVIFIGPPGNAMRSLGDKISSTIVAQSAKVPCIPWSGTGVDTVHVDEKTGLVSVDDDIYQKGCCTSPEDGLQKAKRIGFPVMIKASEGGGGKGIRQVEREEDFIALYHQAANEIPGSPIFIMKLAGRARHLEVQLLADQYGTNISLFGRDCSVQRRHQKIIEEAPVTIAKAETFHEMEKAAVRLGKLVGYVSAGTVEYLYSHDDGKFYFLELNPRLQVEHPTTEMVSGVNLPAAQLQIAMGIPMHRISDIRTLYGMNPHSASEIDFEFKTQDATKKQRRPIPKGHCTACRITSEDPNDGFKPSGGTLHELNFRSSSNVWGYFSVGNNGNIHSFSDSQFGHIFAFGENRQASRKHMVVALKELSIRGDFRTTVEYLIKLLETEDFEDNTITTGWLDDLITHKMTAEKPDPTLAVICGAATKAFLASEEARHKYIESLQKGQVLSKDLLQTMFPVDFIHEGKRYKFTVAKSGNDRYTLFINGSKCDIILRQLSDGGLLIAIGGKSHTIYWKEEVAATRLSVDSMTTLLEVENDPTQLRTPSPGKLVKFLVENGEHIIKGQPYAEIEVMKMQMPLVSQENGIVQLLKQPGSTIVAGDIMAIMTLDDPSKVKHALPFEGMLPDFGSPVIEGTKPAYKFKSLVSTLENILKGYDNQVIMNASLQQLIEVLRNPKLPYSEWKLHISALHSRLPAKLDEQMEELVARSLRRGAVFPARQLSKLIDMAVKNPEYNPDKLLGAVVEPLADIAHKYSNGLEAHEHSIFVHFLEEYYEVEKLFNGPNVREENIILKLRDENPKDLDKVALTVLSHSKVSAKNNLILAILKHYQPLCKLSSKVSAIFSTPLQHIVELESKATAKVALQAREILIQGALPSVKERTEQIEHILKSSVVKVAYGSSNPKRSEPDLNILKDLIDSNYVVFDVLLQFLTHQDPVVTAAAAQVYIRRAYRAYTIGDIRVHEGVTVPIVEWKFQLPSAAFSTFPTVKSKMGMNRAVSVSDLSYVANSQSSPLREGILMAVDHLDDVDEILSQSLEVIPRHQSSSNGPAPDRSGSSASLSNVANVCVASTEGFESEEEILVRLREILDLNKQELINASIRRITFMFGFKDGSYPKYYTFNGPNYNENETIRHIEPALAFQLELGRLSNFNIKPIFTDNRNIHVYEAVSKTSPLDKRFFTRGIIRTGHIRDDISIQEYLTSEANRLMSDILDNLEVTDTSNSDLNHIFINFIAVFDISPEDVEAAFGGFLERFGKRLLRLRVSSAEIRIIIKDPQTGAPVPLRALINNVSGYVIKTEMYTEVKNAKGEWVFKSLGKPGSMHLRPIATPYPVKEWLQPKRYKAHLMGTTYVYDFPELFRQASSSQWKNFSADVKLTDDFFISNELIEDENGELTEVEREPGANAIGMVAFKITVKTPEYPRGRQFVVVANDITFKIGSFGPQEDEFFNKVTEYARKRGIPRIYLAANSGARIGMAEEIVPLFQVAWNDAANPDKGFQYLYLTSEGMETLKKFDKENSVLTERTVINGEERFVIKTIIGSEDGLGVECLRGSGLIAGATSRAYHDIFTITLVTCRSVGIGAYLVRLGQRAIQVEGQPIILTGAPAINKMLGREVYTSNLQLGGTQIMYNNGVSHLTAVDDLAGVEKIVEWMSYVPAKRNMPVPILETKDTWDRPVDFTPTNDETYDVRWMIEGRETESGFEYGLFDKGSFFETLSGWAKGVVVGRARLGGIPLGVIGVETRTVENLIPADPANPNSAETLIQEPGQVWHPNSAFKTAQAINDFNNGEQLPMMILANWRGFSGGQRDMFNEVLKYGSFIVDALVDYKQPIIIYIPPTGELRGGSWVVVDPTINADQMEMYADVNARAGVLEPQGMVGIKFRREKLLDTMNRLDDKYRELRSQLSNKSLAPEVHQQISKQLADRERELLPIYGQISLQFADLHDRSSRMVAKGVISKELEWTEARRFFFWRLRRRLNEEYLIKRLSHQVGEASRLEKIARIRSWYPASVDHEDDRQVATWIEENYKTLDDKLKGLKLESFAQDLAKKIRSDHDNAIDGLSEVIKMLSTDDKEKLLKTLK
Structure (SMILES),"MIC [1, 14] [µg/mL]","MIC [2, 15] [µg/mL]","IC90 [3, 16] [µg/mL]",IC50 [4] [nM],"IC90 [5, 17] [µg/mL]",IC90 [6] [µg/mL],"IC90 [7, 18] [µg/mL]","IC90 [8, 19] [µg/mL]",IC50 [9] [nM],"MIC [1, 24] [µg/mL]","MIC [2, 25] [µg/mL]","IC90 [3, 26] [µg/mL]","IC90 [5, 27] [µg/mL]","IC90 [6, 28] [µg/mL]","IC90 [7, 29] [µg/mL]","IC90 [8, 30] [µg/mL]","IC90 [10, 31] [µg/mL]","MIC [11, 32] [µg/mL]","IC90 [12, 33] [µg/mL]","IC90 [13, 34] [µg/mL]",other results
Cc1c(-n2nccn2)sc2c1c(=O)n(C(C)(C)C(=O)NC(C)C)c(=O)n2C[C@H](OC(C)C)c1cc(F)ccc1CCC#N [Compound I-234],2.01 to 4,2.01 to 4,> 50,10 to 40,0.4,0.08,> 50,0.4,1 to 5,–,–,–,–,–,–,–,–,–,–,–,"IC90 [10, 20]: 0.08 µg/mL; MIC [11, 21]: 1.01 to 2 µg/mL; IC90 [12, 22]: 0.08 µg/mL; IC90 [13, 23]: 2 µg/mL"
Cc1c(-n2nccn2)sc2c1c(=O)n(C(C)(C)C(=O)NC(C)C)c(=O)n2C[C@H](OCC(C)(C)O)c1cc(F)ccc1OCC#N [Compound I-235],1.01 to 2,0.25 to 1,> 50,10 to 40,0.4,0.4,10,2,1 to 5,–,–,–,–,–,–,–,–,–,–,–,"IC90 [10, 20]: 2 µg/mL; MIC [11, 21]: 2.01 to 4 µg/mL; IC90 [12, 22]: 0.4 µg/mL; IC90 [13, 23]: 2 µg/mL"
CCc1ccc(F)cc1[C@H](Cn1c(=O)n(C(C)(C)C(=O)NC(C)C)c(=O)c2c(C)c(-n3nccn3)sc21)OCC(C)(C)C#N [Compound I-238],–,–,–,5 to 10,–,–,–,–,1 to 5,2.01 to 4,1.01 to 2,> 50,0.08,0.08,> 50,0.08,0.08,> 4.01,0.08,2,–
COc1ccc(F)cc1[C@H](Cn1c(=O)n(C(C)(C)C(=O)NC(C)C)c(=O)c2c(C)c(-n3nccn3)sc21)O[C@H]1C[C@@H](O)C1 [Compound I-239],–,–,–,10 to 40,–,–,–,–,1 to 5,0.25 to 1,0.25 to 1,> 50,2,0.08,> 50,2,0.4,0.25 to 1,0.08,2,–
CCc1ccc(F)cc1[C@@H](Cn1c(=O)n(C(C)(C)C(=O)NC(C)C)c(=O)c2c(C)c(-n3nccn3)sc21)OC[C@H](C)C#N [Compound I-245],–,–,–,1 to 5,–,–,–,–,0.3 to 1,2.01 to 4,2.01 to 4,> 50,0.08,0.08,> 50,0.08,0.08,> 4.01,0.08,2,–
Cc1c(-n2nccn2)sc2c1c(=O)n(C(C)(C)C(=O)NC(C)C)c(=O)n2C[C@H](OCCC#N)c1cc(F)ccc1O [Compound I-246],–,–,–,1 to 5,–,–,–,–,0.3 to 1,2.01 to 4,> 4.01,> 50,2,0.4,10,2,2,2.01 to 4,0.4,10,–
CCc1ccc(F)cc1[C@@H](Cn1c(=O)n(C(C)(C)C(=O)NC(C)C)c(=O)c2c(C)c(-n3nccn3)sc21)OC[C@@H](C)C#N [Compound I-247],–,–,–,1 to 5,–,–,–,–,1 to 5,2.01 to 4,2.01 to 4,> 50,0.08,0.08,> 50,0.4,0.4,> 4.01,0.08,2,–
COc1ccc(F)cc1[C@H](Cn1c(=O)n(C(C)(C)C(=O)NC(C)C)c(=O)c2c(C)c(-n3nccn3)sc21)OCCS(C)(=O)=O [Compound I-248],1.01 to 2,1.01 to 2,> 50,10 to 40,0.4,0.4,10,2,0.3 to 1,–,–,–,–,–,–,–,–,–,–,–,"IC90 [10, 20]: 2 µg/mL; MIC [11, 21]: 1.01 to 2 µg/mL; IC90 [12, 22]: 0.08 µg/mL; IC90 [13, 23]: 0.4 µg/mL"
COc1ccccc1[C@H](O)Cn1c(=O)n(C(C)(C)C(=O)NC(C)C)c(=O)c2c(C)c(-n3nccn3)sc21 [Compound I-251],0.25 to 1,1.01 to 2,> 50,10 to 40,> 50,2,> 50,10,1 to 5,–,–,–,–,–,–,–,–,–,–,–,"IC90 [10, 20]: 2 µg/mL; MIC [11, 21]: 0.25 to 1 µg/mL; IC90 [12, 22]: 2 µg/mL; IC90 [13, 23]: > 50 µg/mL"
CCNC(=O)[C@@H](C)n1c(=O)c2c(C)c(-n3nccn3)sc2n(C[C@H](OCCC#N)c2cc(F)ccc2OC)c1=O [Compound I-252],–,–,–,1 to 5,–,–,–,–,1 to 5,2.01 to 4,> 4.01,> 50,0.08,0.08,10,2,0.4,> 4.01,0.08,0.4,–
CCNC(=O)[C@H](C)n1c(=O)c2c(C)c(-n3nccn3)sc2n(C[C@H](OCCC#N)c2cc(F)ccc2OC)c1=O [Compound I-253],–,–,–,5 to 10,–,–,–,–,0.3 to 1,2.01 to 4,> 4.01,> 50,10,0.4,> 50,2,10,> 4.01,2,10,–
CCNC(=O)C(C)(C)n1c(=O)c2c(C)c(-n3nccn3)sc2n(C[C@@H](O)c2cc(F)ccc2OC)c1=O [Compound I-254],–,–,–,> 40,–,–,–,–,1 to 5,2.01 to 4,2.01 to 4,> 50,> 50,10,> 50,> 50,> 50,2.01 to 4,2,> 50,–
CCNC(=O)C(C)(C)n1c(=O)c2c(C)c(-n3nccn3)sc2n(C[C@H](O)c2cc(F)ccc2OC)c1=O [Compound I-255],–,–,–,10 to 40,–,–,–,–,0.3 to 1,2.01 to 4,2.01 to 4,> 50,2,0.08,> 50,2,0.4,2.01 to 4,0.4,2,–
COc1ccccc1[C@@H](O)Cn1c(=O)n(C(C)(C)C(=O)NC(C)C)c(=O)c2c(C)c(-n3nccn3)sc21 [Compound I-256],0.25 to 1,1.01 to 2,> 50,5 to 10,2,0.08,10,0.4,1 to 5,–,–,–,–,–,–,–,–,–,–,–,"IC90 [10, 20]: 0.08 µg/mL; MIC [11, 21]: 0.25 to 1 µg/mL; IC90 [12, 22]: 0.08 µg/mL; IC90 [13, 23]: 2 µg/mL"
